Assay results reported in patent US20220009914A1, “Analogs of Nitrofuran Antibiotics to Combat Resistance” (The Trustees of Indiana University, priority 2020, published 2022).
Where two headings read alike, the source gives them in different places.

Assays:
[1] = molecular target: T1, native MDH (Sus scrofa, UniProt P00346); experiment: native MDH activity counter-screen in the presence of E. coli NfsB nitroreductase; type: biochemical, pig
T1 sequence (P00346 25-338): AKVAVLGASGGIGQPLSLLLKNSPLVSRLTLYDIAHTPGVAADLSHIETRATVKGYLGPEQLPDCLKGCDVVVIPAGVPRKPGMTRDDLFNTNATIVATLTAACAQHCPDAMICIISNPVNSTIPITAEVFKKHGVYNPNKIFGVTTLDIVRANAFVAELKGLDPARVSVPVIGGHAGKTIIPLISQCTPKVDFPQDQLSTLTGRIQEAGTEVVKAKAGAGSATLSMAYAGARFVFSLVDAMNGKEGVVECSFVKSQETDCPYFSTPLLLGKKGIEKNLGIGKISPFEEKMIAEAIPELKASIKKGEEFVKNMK
Method: Evaluating compounds for inhibition in the GroEL/ES-mediated dMDH refolding assay and native MDH activity counter-screen in the presence of E. coli NfsB nitroreductase. These assays were performed nearly identically to those mentioned above, but with a couple distinct modifications. […] The remainder of the assay was conducted as in our standard protocol where no NfsB nitroreductase was present. […] Results presented represent the averages of IC50 values obtained from at least four replicates in each assay.

[2] = molecular target: T2, E. coli GroEL/ES (Escherichia coli, UniProt P0A6F5); experiment: GroEL/ES-mediated dRho refolding assay; type: biochemical
T2 construct: made in house; host or cells: GroEL in NEB 5-alpha E. coli; GroES in E. coli BL21 (DE3)
Method: Evaluating compounds for inhibition in the GroEL/ES-mediated dRho refolding assay. Reagent preparation: For this assay, five primary reagent stocks were prepared: 1) GroEL/ES-dRho binary complex stock; 2) ATP initiation stock; 3) thiocyanate enzymatic assay stock; 4) formaldehyde quench stock; 5) ferric nitrate reporter stock. Denatured rhodanese (dRho) was prepared by 3-fold dilution of rhodanese (Roche product #R^1756, diluted to 10 mg/mL with H2O) with denaturant buffer (12 M Urea, 50 mM Tris-HCl, pH 7.4, and 10 mM DTT). Rhodanese was completely denatured by incubating at room temperature for >45 min. The binary complex solution was prepared by slowly adding the dRho stock to a stirring stock of concentrated GroEL in modified folding buffer (50 mM Tris-HCl, pH 7.4, 50 mM KCl, 10 mM MgCl2, 5 mM Na2S2O3, and 1 mM DTT). The solution was centrifuged at 16,000×g for 5 minutes, and the supernatant was collected and added to a solution of GroES in modified folding buffer to give final protein concentrations of 100 nM GroEL, 120 nM GroES, and 80 nM dRho. The binary complex stock was prepared immediately prior to use. For the ATP initiation stock, ATP solid was diluted into modified folding buffer to a final concentration of 2.0 mM. The thiocyanate enzymatic assay stock was prepared to contain 70 mM KH2PO4, 80 mM KCN, and 80 mM Na2S2O3 in water. The formaldehyde quench solution contained 30% formaldehyde in water.
Assay Protocol: First, 10 μL aliquots of the GroEL/ES-dRho complex stock were dispensed into clear, flat-bottom 384-well polystyrene plates. […] After incubating for 40 minutes at 37° C. for the refolding cycle, 30 μL of the thiocyanate enzymatic assay stock was added and incubated for 60 min at room temperature for the refolded rhodanese enzymatic reporter reaction. The reporter reaction was quenched by adding 10 μL of the formaldehyde quench stock, and then 40 μL of the ferric nitrate reporter stock was added to quantify the amount of thiocyanate produced during the enzymatic reporter reaction, which is proportional to the amount of dRho refolded by GroEL/ES. After incubating at room temperature for 15 min, the absorbance by Fe(SCN)3 was measured at 460 nm using a Molecular Devices SpectraMax Plus384 microplate reader. A second set of baseline control plates were prepared analogously, but without GroEL/ES-dRho protein binary solution, to correct for possible interference from compound absorbance or turbidity. […] Results presented represent the averages of IC50 values obtained from at least four replicates.
Evaluating compounds for inhibition in the GroEL/ES-mediated dRho refolding assay. All compounds were evaluated for inhibiting E. coli GroEL/ES-mediated refolding of the denatured Rho reporter enzyme as per our previously reported procedure. Results presented represent the averages of IC50 values obtained from at least four replicates.

[3] = with E. coli NfsB nitroreductase, read-out: Native MDH Activity w/NfsB IC50

T2 sequence (P0A6F5 2-548): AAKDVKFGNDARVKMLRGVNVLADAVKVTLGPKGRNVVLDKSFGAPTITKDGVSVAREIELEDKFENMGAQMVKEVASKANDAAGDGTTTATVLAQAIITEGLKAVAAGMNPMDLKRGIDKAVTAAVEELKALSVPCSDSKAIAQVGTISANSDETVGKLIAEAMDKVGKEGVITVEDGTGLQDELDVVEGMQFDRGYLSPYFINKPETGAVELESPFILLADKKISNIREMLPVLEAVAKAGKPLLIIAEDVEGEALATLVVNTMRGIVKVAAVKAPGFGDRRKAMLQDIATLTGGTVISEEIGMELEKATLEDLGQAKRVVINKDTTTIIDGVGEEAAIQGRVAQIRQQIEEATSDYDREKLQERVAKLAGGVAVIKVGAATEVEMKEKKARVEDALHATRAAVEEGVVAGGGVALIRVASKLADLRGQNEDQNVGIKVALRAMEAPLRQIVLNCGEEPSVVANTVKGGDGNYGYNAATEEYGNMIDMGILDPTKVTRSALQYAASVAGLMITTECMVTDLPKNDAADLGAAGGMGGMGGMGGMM

Row | SMILES | IC50 [1, 3] | IC50 [2] | IC50 [1] | IC50 ([2]; read-out: GroEL/ES-dRho Refolding IC50)
1 | O=C(N/N=C/c1ccc(O)c2ncccc12)c1ccc(Cl)s1 [Compound 4, 5-chloro-N′-((8-hydroxyquinolin-5-yl)methylene)thiophene-2-carbohydrazide] | > 56 µM | 1.4 µM |  | 
2 | O=C(N/N=C/c1ccc(O)c2ncccc12)c1ccc(NS(=O)(=O)c2ccc(Br)cc2)cc1 [Compound 14, 4-bromo-N-(4-(2-((8-hydroxyquinolin-5-yl)methylene)hydrazine-1-carbonyl)phenyl)benzenesulfonamide] | > 56 µM | 1.8 µM |  | 
3 | O=C(N/N=C/c1ccccc1)c1ccccc1 [Compound 38, N′-benzylidenebenzohydrazide] | > 56 µM | > 250 µM |  | 
4 | O=C(N/N=C/c1cccc2ncccc12)c1ccccc1 [Compound 32, N′-(quinolin-5-ylmethylene)benzohydrazide] | > 56 µM | > 250 µM |  | 
5 | COc1ccc(C(=O)N/N=C/c2ccc(O)cc2)cc1 [Compound 35, N′-(4-hydroxybenzylidene)-4-methoxybenzohydrazide] | > 56 µM | > 250 µM |  | 
6 | O=C(N/N=C/c1ccc([N+](=O)[O-])o1)c1cccc2ccccc12 [Compound 22, N′-((5-nitrofuran-2-yl)methylene)-1-naphthohydrazide] | > 56 µM | 73 µM |  | 
7 | O=C(N/N=C/c1ccc(O)c2ncccc12)c1ccncc1 [Compound 6, N′-((8-hydroxyquinolin-5-yl)methylene)isonicotinohydrazide] | > 56 µM | > 250 µM |  | 
8 | CCOc1ccc(S(=O)(=O)Nc2ccc(C(=O)N/N=C/c3ccc([N+](=O)[O-])o3)cc2)cc1 [Compound 28, 4-ethoxy-N-(4-(2-((5-nitrofuran-2-yl)methylene)hydrazine-1-carbonyl)phenyl)benzenesulfonamide] | > 56 µM | 66 µM |  | 
9 | O=C(N/N=C/c1ccc([N+](=O)[O-])o1)c1ccc(NS(=O)(=O)c2ccc(Br)cc2)cc1 [Compound 27, 4-bromo-N-(4-(2-((5-nitrofuran-2-yl)methylene)hydrazine-1-carbonyl)phenyl)benzenesulfonamide] |  | 59 µM | > 56 µM | 
10 | O=Cc1ccc(O)c2ncccc12 [Compound 40, reference compound] | > 56 µM |  |  | 30 µM
11 | COc1ccc(C(=O)N/N=C/c2cccc3ccccc23)cc1 [Compound 33, 4-methoxy-N′-(naphthalen-1-ylmethylene)benzohydrazide] | > 56 µM | 129 µM |  | 
